Test system: 616215-338-R-J1-PDC complex spheroid viability
Assay: Anticancer human tumor 616215-338-R-J1-PDC patient-derived colon adenocarcinoma cell line growth inhibition [POLQ]
Details: for IC50: curve of first compound; for viability, T/C: stronger effect = lower value
In short: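 Three-cell-type spheroids modelling solid tumor plus stroma served as the readout system; POL inhibitors were tested individually and in combination, concentration ranges set by clinical Cmax where known.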
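Note: spheroids exposed to compounds for one week before readout.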
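Throughout, for viability, T/C: percent viability relative to DMSO vehicle wells taken as 100%.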

**Q.** Which results are given for `Cn1ncnc1[C@H]1c2n[nH]c(=O)c3cc(F)cc(c23)N[C@@H]1c1ccc(F)cc1` + COC1C(OC(N)=O)C(O)C(Oc2ccc3c(O)c(NC(=O)c4ccc(O)c(CC=C(C)C)c4)c(=O)oc3c2C)OC1(C)C?
**A.** IC50 (second compound 0.0316 µM): > 100 nM; IC50 (second compound 0.1 µM): > 100 nM; IC50 (second compound 0.316 µM): > 100 nM; IC50 (second compound 1 µM): > 100 nM; IC50 (second compound 3.16 µM): > 100 nM; IC50 (second compound 10 µM): > 100 nM; viability, T/C (second compound 0.0316 µM, first compound 0.000316 µM): 103%; viability, T/C (second compound 0.0316 µM, first compound 0.001 µM): 107%; viability, T/C (second compound 0.0316 µM, first compound 0.00316 µM): 105%; viability, T/C (second compound 0.0316 µM, first compound 0.01 µM): 107%; viability, T/C (second compound 0.0316 µM, first compound 0.0316 µM): 102%; viability, T/C (second compound 0.0316 µM, first compound 0.1 µM): 102%; viability, T/C (second compound 0.1 µM, first compound 0.000316 µM): 97.2%; viability, T/C (second compound 0.1 µM, first compound 0.001 µM): 90.8%; viability, T/C (second compound 0.1 µM, first compound 0.00316 µM): 102%; viability, T/C (second compound 0.1 µM, first compound 0.01 µM): 103%; viability, T/C (second compound 0.1 µM, first compound 0.0316 µM): 101%; viability, T/C (second compound 0.1 µM, first compound 0.1 µM): 109%; viability, T/C (second compound 0.316 µM, first compound 0.000316 µM): 95.5%; viability, T/C (second compound 0.316 µM, first compound 0.001 µM): 106%; viability, T/C (second compound 0.316 µM, first compound 0.00316 µM): 98.9%; viability, T/C (second compound 0.316 µM, first compound 0.01 µM): 104%; viability, T/C (second compound 0.316 µM, first compound 0.0316 µM): 109%; viability, T/C (second compound 0.316 µM, first compound 0.1 µM): 95.9%; viability, T/C (second compound 1 µM, first compound 0.000316 µM): 106%; viability, T/C (second compound 1 µM, first compound 0.001 µM): 95.7%; viability, T/C (second compound 1 µM, first compound 0.00316 µM): 108%; viability, T/C (second compound 1 µM, first compound 0.01 µM): 105%; viability, T/C (second compound 1 µM, first compound 0.0316 µM): 107%; viability, T/C (second compound 1 µM, first compound 0.1 µM): 104%; viability, T/C (second compound 3.16 µM, first compound 0.000316 µM): 109%; viability, T/C (second compound 3.16 µM, first compound 0.001 µM): 98.5%; viability, T/C (second compound 3.16 µM, first compound 0.00316 µM): 102%; viability, T/C (second compound 3.16 µM, first compound 0.01 µM): 101%; viability, T/C (second compound 3.16 µM, first compound 0.0316 µM): 102%; viability, T/C (second compound 3.16 µM, first compound 0.1 µM): 105%; viability, T/C (second compound 10 µM, first compound 0.000316 µM): 105%; viability, T/C (second compound 10 µM, first compound 0.001 µM): 101%; viability, T/C (second compound 10 µM, first compound 0.00316 µM): 103%; viability, T/C (second compound 10 µM, first compound 0.01 µM): 117%; viability, T/C (second compound 10 µM, first compound 0.0316 µM): 105%; viability, T/C (second compound 10 µM, first compound 0.1 µM): 97.1%
